Results: patent US20240182449A1, “CRYSTALLINE FORMS OF AN MK2 INHIBITOR” (XinThera, Inc., priority 2022, published 2024)
≈ marks a conversion by molar mass, not a printed value. Where “and” joins values, the source holds several entries; their conditions need not be identical. Equal entries are not always repeated. Entries after “also recorded” stand apart in the source; their conditions may differ.

Tests used:
pH solubility profile = type: physicochemical
Experimental: Different pH buffers (pH 1.0, 3.0, 5.0, 6.8 and 9.0) were prepared by method in Table 20. Then 10 mg of Form X was added into 2 mL of different buffers (pH=1.0, 3.0, 5.0, 6.8 and 9.0) to make suspensions. The suspensions were kept shaking with a speed of 1000 rpm at 25° C. for 4 and 24 hours. At each point, the suspensions were centrifuged, and the supernatant was inspected by HPLC/pH, and the wet cakes were analyzed by XRPD. Duplicate samples were prepared.

Hygroscopicity by DVS = type: physicochemical
Experimental: DVS was performed on Form X, to evaluate its hygroscopicity and physical stability under different humidity.
Moisture sorption/desorption data were collected on a DVS instrument. Appropriate amount of sample was placed into a tared sample chamber and automatically weighed. The sample was analyzed with the setting parameters in the table below.

[1] = Solubility in bio-relevant media (SGF, FaSSIF, FeSSIF) and water; type: physicochemical; details: for Solubility: 37° C.
Experimental: The solubility of Form X was measured in bio-relevant media (SGF, FaSSIF and FeSSIF) and water at 37° C. with 800 rpm for up to 24 hours. About 15 mg of Form X was weighed into sample vials and then 3 mL of three bio-relevant media and water were added to make suspensions, respectively. At 0.5, 2 and 24 hours, about 1 mL of each suspension was filtered, the filtrates were analyzed by HPLC and pH, and the filter cakes were analyzed by XRPD. Duplicate samples were prepared. […] A little higher solubility in FeSSIF was possibly due to the effect of bile salt.

[2] = Slurry competition experiments (thermodynamic stability relationship); type: physicochemical; details: RT, also in pure water
Experimental: Slurry competition experiments were carried out between anhydrous and hydrates, to establish stability relationships. Appropriate amount of Form I was suspended in different solvents for pre-saturation at RT. Then the filtrate was added into equal amount of different forms, and the mixture was kept stirring at RT for certain time before XRPD tests.

[3] = Solid-state stability (HPLC purity and XRPD); type: physicochemical; details: for solid-state stability (form change, purity): 7 days
Experimental: Solid-state stability of Form X was conducted at 60° C. (capped) and 40° C./75% RH (open) for 7 days. The stability sample was dissolved in diluent to prepare solution at ˜1 mg/mL for HPLC purity analysis. Solid samples were analyzed by XRPD to check the crystal form.

[4] = Solubility estimation at RT by visual observation in selected solvent systems
Experimental: The solubility of compound 1 Form I and Form X was estimated at RT by visual observation in selected solvent systems. Approximately 5 mg solids were weighed into 8 mL glass vial, and then solvent was added stepwise until solids were dissolved completely or a total of solvent volume reached 5 mL.

[5] = Slurry conversion of Form I and Form X in solvents (XRPD result); type: physicochemical; details: for XRPD Result-Day 3: slurry at 80° C.
Experimental: Appropriate amount of Form I was added into different solvents to make suspensions, which were kept stirring at RT and 50° C. for 3 and 7 days, and at 80° C. for 3 days. Solid samples were collected by centrifugation and analyzed by XRPD. Forms I-IV, VII and VIII were obtained by slurry experiments of Form I.
Appropriate amount of Form X was added into different solvents to make suspensions, which were kept stirring at RT and 50° C. for 3 and 7 days, and at 80° C. for 3 days. Solid samples were collected by centrifugation and analyzed by XRPD.

[6] = Mechanical stability (manual grinding, XRPD); type: physicochemical
Experimental: Appropriate amount of Form X was manually ground by pestle and mortar for about 2 minutes and 5 minutes, and then analyzed by XRPD.

[7] = slurry at 50° C., Acetone/water (1/3)
[8] = slurry at 50° C., MeOH/Water (1/4)
[9] = slurry at RT, Acetone/water (1/3)

[2H]C([2H])(Oc1cc(C)n(-c2c(C)cnc(-n3ccc(C(C)(C)O)n3)c2F)c(=O)c1Cl)c1ncc(F)cc1F [Form X]
XRPD of wet cake after pH solubility test (pH solubility profile; 4/24 h, all pH buffers): Unchanged
crystal form after pH solubility test (pH solubility profile; XRPD of wet cake): remained unchanged
Solubility (1T/2T, mg/mL) (pH solubility profile; pH 1.0, 25° C., 4 h): 0.074 mg/mL (≈ 142 µM)
Solubility (1T/2T, mg/mL) (pH solubility profile; pH 1.0, 25° C., 24 h): 0.075 mg/mL (≈ 144 µM)
pH-dependence of solubility (pH solubility profile; pH 1.0-9.0 buffers, 25° C.): no pH-dependence
Solubility (1T/2T, mg/mL) (pH solubility profile; pH 3.0 buffer, 25° C., 4 h): 0.060 mg/mL (≈ 115 µM)
Solubility (1T/2T, mg/mL) (pH solubility profile; pH 3.0 buffer, 25° C., 24 h): 0.073 mg/mL (≈ 140 µM)
Solubility (1T/2T, mg/mL) (pH solubility profile; pH 5.0 buffer, 25° C., 4 h): 0.061 mg/mL (≈ 117 µM)
Solubility (1T/2T, mg/mL) (pH solubility profile; pH 5.0 buffer, 25° C., 24 h): 0.060 mg/mL (≈ 115 µM)
Solubility (1T/2T, mg/mL) (pH solubility profile; pH 6.8 buffer, 25° C., 4 h): 0.060 mg/mL (≈ 115 µM)
Solubility (1T/2T, mg/mL) (pH solubility profile; pH 6.8 buffer, 25° C., 24 h): 0.060 mg/mL (≈ 115 µM)
Solubility (1T/2T, mg/mL) (pH solubility profile; pH 9.0 buffer, 25° C., 4 h): 0.060 mg/mL (≈ 115 µM)
Solubility (1T/2T, mg/mL) (pH solubility profile; pH 9.0 buffer, 25° C., 24 h): 0.062 mg/mL (≈ 119 µM)
XRPD after DVS (Hygroscopicity by DVS): No change
hygroscopicity (Hygroscopicity by DVS; DVS): non-hygroscopic
water uptake (Hygroscopicity by DVS; DVS, 80% RH): 0.11%
water uptake (Hygroscopicity by DVS; DVS, 90% RH): 0.16%
crystal form after DVS test (Hygroscopicity by DVS; after DVS test): remained unchanged
DVS Wt. Gain % (Hygroscopicity by DVS; at 80% RH): 0.11%
DVS Wt. Gain % (Hygroscopicity by DVS; at 90% RH): 0.16%
Hygroscopicity (DVS) (Hygroscopicity by DVS; classification in words): non-hygroscopic
XRPD of filter cake after solubility test ([1]; 0.5/2/24 h, all media (SGF, FaSSIF, FeSSIF, water)): ^a Form X remained unchanged during solubility test in all media
Solubility ([1]; FaSSIF, 0.5 h): 69 µg/mL (≈ 132 µM)
Solubility ([1]; FaSSIF, 2 h): 70 µg/mL (≈ 134 µM)
Solubility ([1]; FaSSIF, 24 h): 74 µg/mL (≈ 142 µM)
Solubility ([1]; FeSSIF, 0.5 h): 97 µg/mL (≈ 186 µM)
Solubility ([1]; FeSSIF, 2 h): 97 µg/mL (≈ 186 µM)
Solubility ([1]; FeSSIF, 24 h): 124 µg/mL (≈ 238 µM)
Solubility ([1]; SGF, 0.5 h): 74 µg/mL (≈ 142 µM)
Solubility ([1]; SGF, 2 h): 70 µg/mL (≈ 134 µM)
Solubility ([1]; SGF, 24 h): 66 µg/mL (≈ 126 µM)
Solubility ([1]; Water, 0.5 h): 74 µg/mL (≈ 142 µM)
Solubility ([1]; Water, 2 h): 74 µg/mL (≈ 142 µM)
Solubility ([1]; Water, 24 h): 70 µg/mL (≈ 134 µM)
crystal form after solubility test ([1]; all media, XRPD of filter cake): remained unchanged
thermodynamic stability in slurry competition of anhydrous forms and hydrates [2]: thermodynamically more stable even in pure water at room temperature; also recorded: thermodynamically stable even in pure water
Stability (physical) ([3]; 40° C./75% RH (open), 1 week): Physically stable at 40° C./75% RH (open)
XRPD Result ([3]; 40° C./75% RH (open), 1 week): Form X
Purity (area %) ([3]; 40° C./75% RH (open), 1 week, duplicate samples): 99.94 area % and 99.93 area %
solid-state stability (form change, purity) ([3]; 40° C./75% RH (open)): physically and chemically stable; also recorded: No form change or purity decrease
XRPD Result ([3]; 60° C. (capped), 1 week): Form X
Purity (area %) ([3]; 60° C. (capped), 1 week, duplicate samples): 99.93 area % and 99.94 area %
solid-state stability (form change, purity) ([3]; 60° C. (capped)): physically and chemically stable; also recorded: No form change or purity decrease
Stability (physical) ([3]; 60° C., 1 week): Physically stable at 40° C./75% RH (open)
Purity (area %) ([3]; Initial): 99.94 area %
XRPD Result ([3]; Initial): Form X
estimated solubility compared with Form I [4]: decreased solubility in some solvents
XRPD Result Day 3 [5, 7]: Form X
XRPD Result Day 7 [5, 7]: Form X
XRPD Result Day 3 ([5]; slurry at 50° C., IPA): Form X
XRPD Result Day 7 ([5]; slurry at 50° C., IPA): Form X
XRPD Result Day 3 ([5]; slurry at 50° C., IPE): Form X
XRPD Result Day 7 ([5]; slurry at 50° C., IPE): Form X
XRPD Result Day 3 ([5]; slurry at 50° C., MTBE): Form X
XRPD Result Day 7 ([5]; slurry at 50° C., MTBE): Form III
XRPD Result Day 3 [5, 8]: Form X
XRPD Result Day 7 [5, 8]: Form X
XRPD Result Day 3 ([5]; slurry at 50° C., Toluene): Form X
XRPD Result Day 7 ([5]; slurry at 50° C., Toluene): Form X
XRPD Result Day 3 ([5]; slurry at 50° C., Water): Form X
XRPD Result Day 7 ([5]; slurry at 50° C., Water): Form X
XRPD Result-Day 3 ([5]; CYH): Form X
XRPD Result-Day 3 ([5]; Heptane): Form X
XRPD Result-Day 3 ([5]; IPA/Water (1/2)): Clear
XRPD Result-Day 3 ([5]; IPA/Water (1/3)): Form X
XRPD Result-Day 3 ([5]; IPAc/Heptane (1/2)): Form X
XRPD Result-Day 3 ([5]; MeCYH): Form X
XRPD Result-Day 3 ([5]; Water): Form X
XRPD Result Day 3 [5, 9]: Form X
XRPD Result Day 7 [5, 9]: Form X
XRPD Result Day 3 ([5]; slurry at RT, EtOH): Clear
XRPD Result Day 7 ([5]; slurry at RT, EtOH): Clear
XRPD Result Day 3 ([5]; slurry at RT, IPA): Form X
XRPD Result Day 7 ([5]; slurry at RT, IPA): Form X
XRPD Result Day 3 ([5]; slurry at RT, IPAc): Form X
XRPD Result Day 7 ([5]; slurry at RT, IPAc): Form X
XRPD Result Day 3 ([5]; slurry at RT, IPE): Form X
XRPD Result Day 7 ([5]; slurry at RT, IPE): Form X
XRPD Result Day 3 ([5]; slurry at RT, MIBK): Form X
XRPD Result Day 7 ([5]; slurry at RT, MIBK): Form X
XRPD Result Day 3 ([5]; slurry at RT, MTBE): Form III
XRPD Result Day 7 ([5]; slurry at RT, MTBE): Form III
XRPD Result Day 3 ([5]; slurry at RT, MeOH/water (1/4)): Form X
XRPD Result Day 7 ([5]; slurry at RT, MeOH/water (1/4)): Form X
XRPD Result Day 3 ([5]; slurry at RT, Toluene): Form X
XRPD Result Day 7 ([5]; slurry at RT, Toluene): Form X
XRPD Result Day 3 ([5]; slurry at RT, Water): Form X
XRPD Result Day 7 ([5]; slurry at RT, Water): Form X
Crystallinity after manual grinding ([6]; manual grinding): with slight crystallinity decrease after
crystal form after grinding ([6]; manually ground about 2 and 5 minutes): remained unchanged with slight crystallinity decrease
